Assay results: patent US11937603B2, “Maleimide derivatives having herbicidal activity, agronomic compositions of the maleimide derivatives, and uses thereof” (Gowan Company, LLC, priority 2018, dated 2024)

Experiments:
Format in all cases: in vivo
Digitaria sanguinalis = experiment: Herbicidal activity in post-emergence; details: dose of 250 g/ha, post-emergence (BBCH 11-12), twenty-one days after treatment, vs untreated control
Procedure: (§1) The herbicidal activity of the compounds of the invention in post-emergence was evaluated according to the following operating modes.
(§2) The plant species of interest (weeds or crops) were sown in pots with a diameter greater than 10 cm, a height of 10 cm and containing sandy soil. Six pots were used for each plant species.
(§3) Water was added to each pot in an amount suitable for the germination of the seeds. The pots were then divided into two groups each containing 3 pots for each weed or crop.
(§4) Upon reaching the phenological stage of the plants with 1-2 extended leaves (BBCH 11-12), the first group of pots was treated with the same hydroacetone dispersion containing 20% acetone by volume, the compound under evaluation at the desired dose and Tween 20 at 0.5% by weight, indicated in Example 6.
(§5) The second group was treated only with a hydroacetone solution containing acetone at 20% by volume and Tween 20 at 0.5% by weight, and was used as a comparison term (control).
(§6) All the pots were kept under observation in a conditioned environment (greenhouse) under the following environmental conditions: • temperature: 24° C. during the day and 18° C. at night • relative humidity: >50% • photoperiod: 16 hours; • light intensity: 12,000 lux.
(§7) The pots were uniformly watered as needed, so as to ensure a degree of humidity sufficient for a good development of the plants.
(§8) Twenty-one days after treatment, the herbicidal activity was evaluated according to the percentage of damage (scale 0-100%) found on the treated plants compared to the untreated plants (control): • 0%=No effect on the plants • 100%=Complete death of the plants
(§9) Nrs. 11,4,2,3 compared with a hydroacetone dispersion containing the Compound CR1 described in EP0297378.

Echinochloa crus-galli = experiment: Herbicidal activity in post-emergence; details: dose of 250 g/ha, post-emergence (BBCH 11-12), twenty-one days after treatment, vs untreated control
Procedure: as §1, §2, §3, §4, §5, §6, §7, §8, §9

Sida spinosa = experiment: Herbicidal activity in post-emergence; details: dose of 250 g/ha, post-emergence (BBCH 11-12), twenty-one days after treatment, vs untreated control
Procedure: as §1, §2, §3, §4, §5, §6, §7, §8, §9

Abutilon theophrasti = experiment: Herbicidal activity in pre-emergence; details: dose of 250 g/ha, twenty-one days after treatment, vs untreated control
Procedure: (§10) The herbicidal activity of the compounds of the invention in pre-emergence was evaluated according to the following operating modes.
(§11) The plant species of interest (weeds or crops) were sown in pots with a diameter of 10 cm, a height of 10 cm and containing sandy soil. Six pots of each plant species were used.
as §3
(§12) One day after sowing, the first group of pots was treated with a dispersion having the following composition:
(§13) The dispersion was prepared by adding a desired dose of a compound of the present invention to a hydroacetone solution containing acetone at 20% by volume and Tween 20 at 0.5% by weight, with respect to the total weight of the dispersion and applied on a surface of 2 square meters. […]
as §5, §6, §7, §8
(§14) Nrs. 4 and 2 compared with a dispersion containing the Compound CR1 described in EP0297378 instead of the compound having general formula (I): […]

Lolium rigidum = experiment: Herbicidal activity in pre-emergence; details: dose of 250 g/ha, twenty-one days after treatment, vs untreated control
Procedure: as §10, §11, §3, §12, §13, §5, §6, §7, §8, §14

Setaria viridis = experiment: Herbicidal activity in pre-emergence; details: dose of 250 g/ha, twenty-one days after treatment, vs untreated control
Procedure: as §10, §11, §3, §12, §13, §5, §6, §7, §8, §14

Solanum nigra = experiment: Herbicidal activity in pre-emergence; details: dose of 250 g/ha, twenty-one days after treatment, vs untreated control
Procedure: as §10, §11, §3, §12, §13, §5, §6, §7, §8, §14

Amaranthus retroflexus = experiment: Herbicidal activity in pre-emergence; details: dose of 250 g/ha, twenty-one days after treatment, vs untreated control
Procedure: as §10, §11, §3, §12, §13, §5, §6, §7, §8, §14

| Molecule | Herbicidal activity in post-emergence (percentage of damage, scale 0-100%) (Digitaria sanguinalis) | Herbicidal activity in post-emergence (percentage of damage, scale 0-100%) (Echinochloa crus-galli) | Herbicidal activity in post-emergence (percentage of damage, scale 0-100%) (Sida spinosa) | Herbicidal activity in pre-emergence (percentage of damage, scale 0-100%) (Abutilon theophrasti) | Herbicidal activity in pre-emergence (percentage of damage, scale 0-100%) (Lolium rigidum) | Herbicidal activity in pre-emergence (percentage of damage, scale 0-100%) (Setaria viridis) | Herbicidal activity in pre-emergence (percentage of damage, scale 0-100%) (Solanum nigra) | Herbicidal activity in pre-emergence (percentage of damage, scale 0-100%) (Amaranthus retroflexus) |
| --- | --- | --- | --- | --- | --- | --- | --- | --- |
| 1-(5-tert-butyl-1,3,4-thiadiazol-2-yl)-3,4-dimethyl-2-methoxyethylcarbonate-2H-pyrrol-2-yl-5-one [Compound 3] | 90% | 95% | 90% | – | – | – | – | – |
| CC1=C(C)C(O)N(c2cc(C(C)(C)C)on2)C1=O (stereo not drawn) [CR1, 1-(5-tert-butylisoxazol-3-yl)-2-hydroxy-3,4-dimethyl-2H-pyrrol-5-one, reference compound] | 40% | 85% | 40% | 90% | 80% | 79% | 90% | 60% |
| COCC(=O)OC1C(C)=C(C)C(=O)N1c1nnc(C(C)(C)C)s1 (stereo not drawn) [Compound 2, 1-(5-tert-butyl-1,3,4-thiadiazol-2-yl)-3,4-dimethyl-2-methoxyacetate-2H-pyrrol-5-one] | 100% | 100% | 90% | 95% | 100% | 100% | 95% | 92% |
| CC1=C(C)C(OC(=O)C2CC2)N(c2cc(C(C)(C)C)on2)C1=O (stereo not drawn) [Compound 4, 1-(5-tert-butylisoxazole-3-yl)-2-cyclo-propanecarbonyloxy-3,4-dimethyl-2H-pyrrol-5-one] | 100% | 100% | 100% | 100% | 90% | 100% | 100% | 80% |
